Test results from the supplement of paper PMC7017272.
± gives the standard deviation of the averaged measurements.

Tests used:
Conditions in all cases: treatment time: 3 days
UT-SCC-44 [1] = assay: relative IC50 (midpoint of the fitted curve; maximal inhibition may be below 50%); higher = less potent
In short: (§1)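 HPV-negative HNSCC cell lines were plated at 500 cells/well in 384-well plates, either on plastic, on wells coated with Matrigel or Myogel (500 µg/mL), or embedded in Matrigel or Myogel plus rat collagen I. Each compound was tested at five 10-fold concentrations over 3 days. Viability was measured by CellTiter-Glo 2.0 luminescence, and IC50, maximal inhibition and drug sensitivity score came from percent-inhibition dose–response curves fitted in the FIMM pipeline after normalisation to vehicle (0.1% DMSO) and cell-killing control wells.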

UT-SCC-14 [2] = assay: as above
In short: as §1

UT-SCC-73 [3] = assay: as above
In short: as §1

UT-SCC-42B = assay: as above
In short: as §1

UT-SCC-81 = assay: as above
In short: as §1

UT-SCC-42A = assay: as above
In short: as §1

UT-SCC-44 [4] = assay: drug sensitivity score (DSS); higher = more sensitive; extreme values may be limits of the assay
In short: as §1

UT-SCC-106A = assay: as above
In short: as §1

UT-SCC-14 [5] = assay: as above
In short: as §1

UT-SCC-73 [6] = assay: as above
In short: as §1

[7] = culture condition: on top of Matrigel
[8] = culture condition: on top of Myogel
[9] = culture condition: plastic 2D (no matrix)
[10] = culture condition: embedded in Matrigel
[11] = culture condition: embedded in Myogel + collagen I

In the case of O=C(NC[C@H](O)CO)c1ccncc1Nc1ccc(I)cc1F [Pimasertib], the “relative IC50” value (UT-SCC-44 [1]; [7]) is reported as 35.2 nM, the “relative IC50” value (UT-SCC-44 [1]; [8]) is reported as 148 nM and the “relative IC50” value (UT-SCC-14 [2]; [7]) is reported as 250 nM. For the same compound, the “relative IC50” value (UT-SCC-14 [2]; [8]) was 416 nM, the “relative IC50” value (UT-SCC-14 [2]; [9]) was 637 nM and the “relative IC50” value (UT-SCC-73 [3]; [10]) was 20.4 nM. For the same compound, the “relative IC50” value (UT-SCC-73 [3]; [11]) was 95.9 nM, the “relative IC50” value (UT-SCC-73 [3]; [7]) was 21 nM and the “relative IC50” value (UT-SCC-73 [3]; [8]) was 64.6 nM. For the same compound, the “relative IC50” value (UT-SCC-73 [3]; [9]) was 37.6 nM, the “relative IC50” value (UT-SCC-42B; [10]) was 12.4 nM and the “relative IC50” value (UT-SCC-42B; [7]) was 42.6 nM. For the same compound, the “relative IC50” value (UT-SCC-42B; [8]) was 221 nM, the “relative IC50” value (UT-SCC-42B; [9]) was 123 nM and the “relative IC50” value (UT-SCC-81; [10]) was 14.5 nM. The “relative IC50” value (UT-SCC-81; [7]) was 43.5 nM, the “relative IC50” value (UT-SCC-81; [8]) was 532 nM and the “relative IC50” value (UT-SCC-81; [9]) was 223 nM. The “relative IC50” value (UT-SCC-42A; [10]) was 14.2 nM, the “relative IC50” value (UT-SCC-42A; [11]) was 183 nM and the “relative IC50” value (UT-SCC-42A; [7]) was 17.6 nM. The “relative IC50” value (UT-SCC-42A; [9]) was 40.8 nM, the drug sensitivity score (UT-SCC-44 [4]; [10]) was 26.7 ± 2.9 DSS and the drug sensitivity score (UT-SCC-44 [4]; [11]) was 11.7 ± 3 DSS. It also gave a drug sensitivity score (UT-SCC-44 [4]; [7]) of 22.7 ± 1.1 DSS, a drug sensitivity score (UT-SCC-44 [4]; [8]) of 13.1 ± 2.4 DSS and a drug sensitivity score (UT-SCC-44 [4]; [9]) of 16.4 ± 4 DSS. The drug sensitivity score (UT-SCC-106A; [10]) was 19.4 ± 0.44 DSS, the drug sensitivity score (UT-SCC-106A; [11]) was 5.6 ± 0.27 DSS and the drug sensitivity score (UT-SCC-106A; [7]) was 22.2 ± 0.52 DSS. It also gave a drug sensitivity score (UT-SCC-106A; [8]) of 6.27 ± 0.74 DSS, a drug sensitivity score (UT-SCC-106A; [9]) of 22.2 ± 0.74 DSS and a drug sensitivity score (UT-SCC-14 [5]; [10]) of 13.9 ± 3.4 DSS. For the same compound, the drug sensitivity score (UT-SCC-14 [5]; [11]) was 12.2 ± 5.1 DSS, the drug sensitivity score (UT-SCC-14 [5]; [7]) was 10.6 ± 2.3 DSS and the drug sensitivity score (UT-SCC-14 [5]; [8]) was 8.27 ± 2.3 DSS. It also gave a drug sensitivity score (UT-SCC-14 [5]; [9]) of 8.03 ± 3.4 DSS, a drug sensitivity score (UT-SCC-73 [6]; [10]) of 27.8 ± 0.5 DSS and a drug sensitivity score (UT-SCC-73 [6]; [11]) of 18.7 ± 4.6 DSS. For the same compound, the drug sensitivity score (UT-SCC-73 [6]; [7]) was 25.9 ± 0.64 DSS.
